Like-named read-outs stand apart in the source and are kept apart here.
Columns and labels:
Assay type in all cases: in vivo
[1] = system: adult Tetranychus cinnabarinus; experiment: Activity assay of adult Tetranychus cinnabarinus (whole-plant spray on bean seedlings); details: 48 h; for pest or weed control at 2.5 µg/mL: concentration 2.5 mg/L; for pest or weed control at 1.25 µg/mL: concentration 1.25 mg/L
Method in brief: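 Bean seedlings at two-true-leaf stage, infested with adult mites and base count taken, sprayed whole-plant with compound in DMF (≤10%) diluted in 1‰ Tween 80. Three replicates per treatment kept in standard observation room. Surviving mites counted at 48 h to give death rate.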

[2] = system: Eggs of Tetranychus Cinnabarinus; experiment: Activity assay of eggs of Tetranychus cinnabarinus (spray method, ovicidal); details: Tetranychus cinnabarinus; for pest or weed control at 5 µg/mL: concentration 5 mg/L, non-incubated eggs counted as dead; for pest or weed control at 2 µg/mL: concentration 2 mg/L
Method in brief: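 Female mites laid eggs on broad bean leaves for 24 h, adults removed, eggs sprayed with compound in DMF (≤10%)/1‰ Tween 80. Held at 26±2° C, 70–80% humidity, 16 h light; unhatched eggs counted dead once blank control hatched. Three replicates.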

[3] = system: Tetranychus cinnabarinus Nymphs; experiment: Activity assay of Tetranychus cinnabarinus nymphs (spray on broad bean leaves); details: 48 h; for pest or weed control at 2.5 µg/mL: concentration 2.5 mg/L; for pest or weed control at 2.5 µg/mL / pest or weed control at 2 µg/mL: read-out: nymph-killing activity; for pest or weed control at 2 µg/mL: concentration 2 mg/L; for pest or weed control at 0.5 µg/mL: nymphs, concentration 0.5 mg/L, parallel determination, read-out: Death rate (%)
Method in brief: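 Compound in DMF (≤10%) diluted in 1‰ Tween 80 water was sprayed onto broad bean leaves carrying nymphs hatched from eggs laid by female adults over 24 h. Kept at 26±2° C., 70%–80% humidity, 16 h light; mortality (no response to touch) assessed after 48 h, three replicates with blank control.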

[4] = read-out: adult mite-killing activity
[5] = spray, read-out: ovicidal activity
[6] = adult mites, parallel determination, read-out: Death rate (%)
[7] = eggs, parallel determination, read-out: Death rate (%)

Row | Compound | pest or weed control at 2.5 µg/mL [1, 4] | pest or weed control at 5 µg/mL [2, 5] | pest or weed control at 2.5 µg/mL [3] | pest or weed control at 1.25 µg/mL [1, 4] | pest or weed control at 2 µg/mL [2, 5] | pest or weed control at 2 µg/mL [3] | pest or weed control at 1.25 µg/mL [1, 6] | pest or weed control at 2 µg/mL [2, 7] | pest or weed control at 0.5 µg/mL [3]
1 | CCn1nc(C)cc1/C(OCOC(=O)OCCSC)=C(\C#N)c1ccc(C(C)(C)C)cc1 [Compound 567] | ≥ 90% | ≥ 90% | ≥ 95% | – | – | – | – | – | –
2 | C=CCOC(=O)OCO/C(=C(/C#N)c1ccc(C(C)(C)C)cc1)c1cc(C)nn1CC [Compound 570] | ≥ 90% | ≥ 90% | ≥ 95% | ≥ 90% | ≥ 90% | ≥ 90% | – | – | –
3 | C#CCOC(=O)OCO/C(=C(/C#N)c1ccc(C(C)(C)C)cc1)c1cc(C)nn1CC [Compound 572] | ≥ 90% | ≥ 90% | ≥ 95% | – | – | – | – | – | –
4 | CCn1nc(C)cc1/C(OCOC(=O)OCC(=O)OC)=C(\C#N)c1ccc(C(C)(C)C)cc1 [Compound 573] | ≥ 90% | ≥ 90% | ≥ 95% | – | – | – | – | – | –
5 | CCSC(=O)OCO/C(=C(/C#N)c1ccc(C(C)(C)C)cc1)c1cc(C)nn1CC [Compound 576] | ≥ 90% | ≥ 90% | ≥ 95% | – | – | – | – | – | –
6 | CCn1nc(C)cc1/C(OCOC(=O)SCC(=O)OC)=C(\C#N)c1ccc(C(C)(C)C)cc1 [Compound 577] | ≥ 90% | ≥ 90% | ≥ 95% | – | – | – | – | – | –
7 | CCn1nc(C)cc1/C(OC(C)OC(=O)OC)=C(\C#N)c1ccc(C(C)(C)C)cc1 (centres unmarked) [Compound 579] | ≥ 90% | ≥ 90% | ≥ 95% | ≥ 90% | ≥ 90% | ≥ 90% | – | – | –
8 | CCOC(=O)OC(C)O/C(=C(/C#N)c1ccc(C(C)(C)C)cc1)c1cc(C)nn1CC (centres unmarked) [Compound 580] | ≥ 90% | ≥ 90% | ≥ 95% | ≥ 90% | ≥ 90% | ≥ 90% | – | – | –
9 | CCn1nc(C)cc1/C(OC(C)OC(=O)OC(C)C)=C(\C#N)c1ccc(C(C)(C)C)cc1 (centres unmarked) [Compound 582] | ≥ 90% | ≥ 90% | ≥ 95% | – | – | – | – | – | –
10 | CCCCOC(=O)OC(C)O/C(=C(/C#N)c1ccc(C(C)(C)C)cc1)c1cc(C)nn1CC (centres unmarked) [Compound 584] | ≥ 90% | ≥ 90% | ≥ 95% | – | – | – | – | – | –
11 | CCn1nc(C)cc1/C(OC(C)OC(=O)OCC(C)C)=C(\C#N)c1ccc(C(C)(C)C)cc1 (centres unmarked) [Compound 585] | ≥ 90% | ≥ 90% | ≥ 95% | ≥ 90% | ≥ 90% | ≥ 90% | 100% | 100% | 96%
12 | CCn1nc(C)cc1/C(OC(C)OC(=O)OCCC(C)C)=C(\C#N)c1ccc(C(C)(C)C)cc1 (centres unmarked) [Compound 586] | ≥ 90% | ≥ 90% | ≥ 95% | – | – | – | – | – | –
13 | CCCCCOC(=O)OC(C)O/C(=C(/C#N)c1ccc(C(C)(C)C)cc1)c1cc(C)nn1CC (centres unmarked) [Compound 588] | ≥ 90% | ≥ 90% | ≥ 95% | – | – | – | – | – | –
14 | CCn1nc(C)cc1/C(OC(C)OC(=O)OCCCl)=C(\C#N)c1ccc(C(C)(C)C)cc1 (centres unmarked) [Compound 590] | ≥ 90% | ≥ 90% | ≥ 95% | – | – | – | – | – | –
15 | CCn1nc(C)cc1/C(OC(C)OC(=O)OCC(F)(F)F)=C(\C#N)c1ccc(C(C)(C)C)cc1 (centres unmarked) [Compound 595] | ≥ 90% | ≥ 90% | ≥ 95% | – | – | – | – | – | –
16 | CCn1nc(C)cc1/C(OC(C)OC(=O)OCCOC)=C(\C#N)c1ccc(C(C)(C)C)cc1 (centres unmarked) [Compound 596] | ≥ 90% | ≥ 90% | ≥ 95% | – | – | – | – | – | –

Row | Compound | pest or weed control at 2.5 µg/mL [1, 4] | pest or weed control at 5 µg/mL [2, 5] | pest or weed control at 2.5 µg/mL [3] | pest or weed control at 1.25 µg/mL [1, 4] | pest or weed control at 2 µg/mL [2, 5] | pest or weed control at 2 µg/mL [3] | pest or weed control at 1.25 µg/mL [1, 6] | pest or weed control at 2 µg/mL [2, 7] | pest or weed control at 0.5 µg/mL [3]
17 | CCn1nc(C)cc1/C(OC(C)OC(=O)OCCSC)=C(\C#N)c1ccc(C(C)(C)C)cc1 (centres unmarked) [Compound 599] | ≥ 90% | ≥ 90% | ≥ 95% | – | – | – | – | – | –
18 | C=CCOC(=O)OC(C)O/C(=C(/C#N)c1ccc(C(C)(C)C)cc1)c1cc(C)nn1CC (centres unmarked) [Compound 602] | ≥ 90% | ≥ 90% | ≥ 95% | ≥ 90% | ≥ 90% | ≥ 90% | – | – | –
19 | C#CCOC(=O)OC(C)O/C(=C(/C#N)c1ccc(C(C)(C)C)cc1)c1cc(C)nn1CC (centres unmarked) [Compound 604] | ≥ 90% | ≥ 90% | ≥ 95% | – | – | – | – | – | –
20 | CCSC(=O)OC(C)O/C(=C(/C#N)c1ccc(C(C)(C)C)cc1)c1cc(C)nn1CC (centres unmarked) [Compound 608] | ≥ 90% | ≥ 90% | ≥ 95% | – | – | – | – | – | –
21 | CCn1nc(C)c(Cl)c1/C(OCOC(=O)OC)=C(\C#N)c1ccc(C(C)(C)C)cc1 [Compound 739] | ≥ 90% | ≥ 90% | ≥ 95% | – | – | – | – | – | –
22 | CCn1nc(C)c(Cl)c1/C(OC(C)OC(=O)OC)=C(\C#N)c1ccc(C(C)(C)C)cc1 (centres unmarked) [Compound 771] | ≥ 90% | ≥ 90% | ≥ 95% | ≥ 90% | ≥ 90% | ≥ 90% | 100% | 100% | 95%
23 | CCOC(=O)OC(C)O/C(=C(/C#N)c1ccc(C(C)(C)C)cc1)c1c(Cl)c(C)nn1CC (centres unmarked) [Compound 772] | ≥ 90% | ≥ 90% | ≥ 95% | ≥ 90% | ≥ 90% | ≥ 90% | 100% | 100% | 90%
24 | CCCCCOC(=O)OC(C)O/C(=C(/C#N)c1ccc(C(C)(C)C)cc1)c1c(Cl)c(C)nn1CC (centres unmarked) [Compound 780] | ≥ 90% | ≥ 90% | ≥ 95% | ≥ 90% | ≥ 90% | ≥ 90% | – | – | –
25 | CCn1nc(C)c(C)c1/C(OCOC(=O)OC)=C(\C#N)c1ccc(C(C)(C)C)cc1 [Compound 931] | ≥ 90% | ≥ 90% | ≥ 95% | ≥ 90% | ≥ 90% | ≥ 90% | 95% | 98% | 95%
26 | CCOC(=O)OCO/C(=C(/C#N)c1ccc(C(C)(C)C)cc1)c1c(C)c(C)nn1CC [Compound 932] | ≥ 90% | ≥ 90% | ≥ 95% | ≥ 90% | ≥ 90% | ≥ 90% | 90% | 97% | –
27 | CCCOC(=O)OCO/C(=C(/C#N)c1ccc(C(C)(C)C)cc1)c1c(C)c(C)nn1CC [Compound 933] | ≥ 90% | ≥ 90% | ≥ 95% | ≥ 90% | ≥ 90% | ≥ 90% | – | – | –
28 | CCn1nc(C)c(C)c1/C(OCOC(=O)OCC(C)C)=C(\C#N)c1ccc(C(C)(C)C)cc1 [Compound 937] | ≥ 90% | ≥ 90% | ≥ 95% | ≥ 90% | ≥ 90% | ≥ 90% | 100% | 100% | 90%
29 | CCCCCOC(=O)OCO/C(=C(/C#N)c1ccc(C(C)(C)C)cc1)c1c(C)c(C)nn1CC [Compound 940] | ≥ 90% | ≥ 90% | ≥ 95% | ≥ 90% | ≥ 90% | ≥ 90% | – | – | –
30 | CCn1nc(C)c(C)c1/C(OC(C)OC(=O)OC)=C(\C#N)c1ccc(C(C)(C)C)cc1 (centres unmarked) [Compound 963] | ≥ 90% | ≥ 90% | ≥ 95% | ≥ 90% | ≥ 90% | ≥ 90% | – | – | –
31 | CCn1nc(C)c(C)c1/C(OC(C)OC(=O)OCC(C)C)=C(\C#N)c1ccc(C(C)(C)C)cc1 (centres unmarked) [Compound 969] | ≥ 90% | ≥ 90% | ≥ 95% | ≥ 90% | ≥ 90% | ≥ 90% | – | – | –

Reference: patent US11104648B2, “Pyrazole derivative” (Zhejiang Research Institute of Chemical Industry Co., Ltd., priority 2018, dated 2021)
